Assay [1] deals with fibroblasts from a patient with a mutation on each allele of the POLG gene. Kind of assay: Amount of mtDNA (qPCR) in patient fibroblasts, quiescent conditions. The format is cell-based, human. As to the method: Skin fibroblasts from the control and from the patient were cultured to 100% confluence in DMEM at 37° C. under 5% CO2. At 100% confluence, the fibroblasts were washed with PBS and the quiescent medium was added (4.5 g/L D-glucose, 110 mg/L sodium pyruvate, 0.1% foetal bovine serum, 1% penicillin/streptomycin from the stock solution containing 10,000 I.U. penicillin and 10,000 μg/mL streptomycin). After four days in quiescent medium, […] or DMSO (0.1%) was added to the culture medium. The treatment was carried out for 18 days, changing the culture medium with or without clofilium tosylate every three days. […] The mtDNA and nuclear DNA were quantified by qPCR (Sarzi, E., Bourdon, A., Chrétien, D., Zarhrate, M., Corcos, J., Slama, A., Cormier-Daire, V., De Lonlay, P., Munnich, A. and Rötig, A. (2007) Mitochondrial DNA Depletion is a Prevalent Cause of Multiple Respiratory Chain Deficiency in Childhood. J Pediatr, 105, 531-534).
Skin fibroblasts from the patient were cultured to 100% confluence in DMEM at 37° C. under 5% CO2. […] The mtDNA and nuclear DNA were quantified by qPCR (Sarzi, E., Bourdon, A., Chrétien, D., Zarhrate, M., Corcos, J., Slama, A., Cormier-Daire, V., De Lonlay, P., Munnich, A. and Rötig, A. (2007) Mitochondrial DNA Depletion is a Prevalent Cause of Multiple Respiratory Chain Deficiency in Childhood. J Pediatr, 105, 531-534).
On the technique in general: In qPCR the cycle at which signal appears reflects the starting amount.

The subject of assay [2] is neuronal cybrids derived from a MELAS patient (m.3243A>G tRNA^Leu mutation). Kind of assay: Lactate production of MELAS neuronal cybrids. In kind it is cell-based, human. Particulars: 300 nM, 48 hours. How it is done:
The increase in the lactate production is the result of a toxicity of the drug used, but also of a mitochondrial dysfunction (energy deficiency) present in MELAS syndrome.
Neuronal cybrid lines carrying the MELAS mutation and the parental control line were grown in sterile culture flasks and incubated at 37° C. with 5% CO2 in a medium composed of DMEM with 1.5 g/L glucose, 2 mM L-glutamine and supplemented with 10% foetal bovine serum as well as uridine (5 μg/ml) and pyruvate (10 μg/mL). The cells were harvested by trypsinisation in exponential phase and were used for subsequent biochemical or molecular mitochondrial analyses.
The MELAS neuronal cybrid line carrying the mutation seemingly in the homoplasmic state (i.e. reaching almost 100% MELAS mutation) and the SHSY-5Y parental control line were used for measurements of enzyme activities. […] These cell pellets were then analysed by spectrophotometry with measurement of the different mitochondrial biochemical activities, particularly the activity of citrate synthase and the activity of complex I of the respiratory chain. […]
The lactate concentration of the culture medium for neuronal cybrid and parental cells was determined by spectrophotometry using an enzymatic kit (Bohringer) on a Hitachi-Roche apparatus (Roche Diagnostics GmbH). […]

`CCCCCCC[N+](CC)(CC)CCCCc1ccc(Cl)cc1.Cc1ccc(S(=O)(=O)[O-])cc1` [clofilium tosylate]: the “amount of mtDNA, quiescent conditions” value in assay [1] (Example 14, 18-day treatment) is recorded as “increased”. Moreover, in assay [1] (Example 25, concentrations of 0.5 μM and 1 μM, 18-day treatment), the “amount of mtDNA, quiescent conditions, dose-response” value is listed as “increased”. The production of lactate result in assay [2] is listed as “without increasing”.

Source of the values: patent US10639287B2, “Compounds for the treatment of mitochondrial diseases” (UNIVERSITE PARIS-SUD, priority 2014, dated 2020).
